Experimental data from PubChem BioAssay (NCI).
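Exposure lasted 48 hours, with cells grown in 96-well plates and compounds tested at five concentrations. Abbreviation: GI50, concentration required for 50% inhibition of growth. TGI: total growth inhibition.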

Experiments:
Assay in all cases: inhibition of tumour cell growth, NCI panel, 48 h
NCI-H460 lung = test system: NCI-H460 lung
HOP-92 NSCLC = test system: HOP-92 NSCLC
SK-MEL-28 melanoma = test system: SK-MEL-28 melanoma
HCT-116 colon = test system: HCT-116 colon
MOLT-4 leukemia = test system: MOLT-4 leukemia
NCI-H23 lung = test system: NCI-H23 lung
SNB-19 CNS = test system: SNB-19 CNS
MDA-MB-435 = test system: MDA-MB-435
KM12 colon = test system: KM12 colon
OVCAR-5 ovarian = test system: OVCAR-5 ovarian

Row | Structure (SMILES) | GI50 (NCI-H460 lung) [µM] | TGI (NCI-H460 lung) [µM] | GI50 (HOP-92 NSCLC) [µM] | TGI (HOP-92 NSCLC) [µM] | GI50 (SK-MEL-28 melanoma) [µM] | TGI (SK-MEL-28 melanoma) [µM] | GI50 (HCT-116 colon) [µM] | TGI (HCT-116 colon) [µM] | GI50 (MOLT-4 leukemia) [µM] | TGI (MOLT-4 leukemia) [µM] | GI50 (NCI-H23 lung) [µM] | TGI (NCI-H23 lung) [µM] | GI50 (SNB-19 CNS) [µM] | TGI (SNB-19 CNS) [µM] | GI50 (MDA-MB-435) [µM] | TGI (MDA-MB-435) [µM] | GI50 (KM12 colon) [µM] | TGI (KM12 colon) [µM] | GI50 (OVCAR-5 ovarian) [µM] | TGI (OVCAR-5 ovarian) [µM]
1 | COc1cc(C(=O)N2CCN(c3ccccc3OC)CC2)c(N)cc1OCc1ccccc1 | 33.1 | > 100 | 14.8 | 43.4 | 43.4 | > 100 | 20.7 | 42.8 | 21.5 | 53.6 | 48.4 | > 100 | 25.7 | > 100 | 28.1 | 76.5 | 32.9 | 90.6 | 80.6 | > 100
2 | COc1ccc(Cn2cc3c(c2-c2ccc(O)cc2)CCc2cnoc2-3)cc1 | 0.321 | 4.45 | 13.9 | 33.4 | 0.616 | 21.7 | 0.422 | 14.7 | 0.507 | 27.4 | 0.461 | 17.8 | 0.586 | 17.1 | 0.0737 | 0.365 | 0.241 | 10.4 | 0.829 | 21.6
3 | C=C(C)[C@@H]1CC[C@]2(C(=O)O)CC[C@]3(C)[C@H](CC[C@@H]4[C@@]5(C)C[C@@H](CC#Cc6ccc(Br)cc6)C(=O)C(C)(C)[C@@H]5CC[C@]43C)[C@@H]12 | 5.71 | > 100 | 17 | 36.4 | 2.62 | 8.25 | 4.34 | 83.3 | 4.44 | > 100 | 3.83 | 23.9 | 6.19 | 64.8 | 4.94 | > 100 | 4.54 | > 100 | 94.3 | > 100
4 | CC(=O)Nc1ccc2c(c1)C(=O)c1cccc(F)c1-2 | – | > 100 | – | 97.7 | – | > 100 | – | > 81.7 | – | > 100 | – | > 100 | – | > 100 | – | > 100 | – | > 35 | – | > 100
5 | O=C(N/N=c1/ccoc2cccnc12)N1CCN(c2ncccn2)CC1 | 0.0896 | 11.1 | 0.017 | 2.68 | 0.996 | 13.3 | < 0.01 | 2.25 | < 0.0129 | 8.06 | 0.0308 | 16.7 | 0.804 | 16.8 | 0.568 | 8.24 | 0.371 | 10.2 | 1.5 | 38.3
6 | N#Cc1c(-c2ccc(Cl)cc2)c(-c2ccc(Cl)cc2)nn(CCOC(=O)CCC(=O)O)c1=O | – | 32.5 | – | 15.2 | – | > 85.6 | – | 4.01 | – | 41.3 | – | 19.6 | – | > 49.2 | – | 0.193 | – | 71.2 | – | > 100
